Results taken from patent US9676714B2, “Sulfonylindole derivatives and method for preparing the same” (Daewoong Pharmaceutical Co., Ltd., priority 2013, dated 2017).
Counter-ions that a name gives are not always drawn.

Molecular target: T1, proton pump (H+/K+-ATPase) (Sus scrofa, UniProt P19156)
T1 construct: Gastric vesicles were prepared from hog stomach via centrifugal separation; from tissue; host or cells: hog stomach (gastric vesicles, method of Rabon et al. 1988)
Test: Measurement of inhibitory effects on proton pump (H+/K+-ATPase) activities
Assay type: biochemical
Conditions: hog gastric vesicles, K+-specific H+/K+-ATPase activity, Tris-HCl buffer pH 7.4, 37° C. for 40 minutes, malachite green Pi readout
Description: 1) Preparation of Gastric Vesicles
Gastric vesicles were prepared from hog stomach via centrifugal separation (Edd C. Rabon et al., Preparation of Gastric H^+,K^+-ATPase, Methods in enzymology, vol. 157 Academic Press Inc., (1988), pp. 649-654). The protein contents of the thus prepared gastric vesicles were quantitated by Bicinchoninic Acid (BCA) kit.
2) Measurement of Inhibitory Effects on Proton Pump (H^+/K^+-ATPase) Activities
The inhibitory effects of the compounds of the present invention against proton pump activities were measured using a 96-well plate. In this assay, the K^+-specific H^+/K^+-ATPase activities were calculated based on the difference between the H^+/K^+-ATPase activity in the presence of K^+ and that in the absence of K. In the 96-well plate, 0.5% dimethyl sulfoxide (DMSO) in buffer was added to the negative and positive control groups, and the diluted compounds of the present invention were added to the test groups. All assays were performed in a reaction volume of 100 μl at room temperature. The reaction buffer solution (60 mmol/l Tris-HCl buffer, pH 7.4) including the hog gastric vesicles was added with DMSO and the compounds at various concentrations, and then further added with 10 μl of 10 mmol/1 adenosine triphosphate Tris buffer solution (60 mmol/l Tris-HCl buffer, pH 7.4) to initiate an enzyme reaction. […] The amount of monophosphate (Pi) in the reaction was measured at 570 nm using a micro plate reader (FLUOstar Omega, BMG LABTECH). The inhibition rates (%) were determined from the activity values of control groups and those of test compounds at various concentrations, and the […] of the test compounds were calculated based on the respective inhibition value (%) using the Logistic 4-parameter function of Sigmaplot 8.0 program.

T1 sequence (P19156 whole entry): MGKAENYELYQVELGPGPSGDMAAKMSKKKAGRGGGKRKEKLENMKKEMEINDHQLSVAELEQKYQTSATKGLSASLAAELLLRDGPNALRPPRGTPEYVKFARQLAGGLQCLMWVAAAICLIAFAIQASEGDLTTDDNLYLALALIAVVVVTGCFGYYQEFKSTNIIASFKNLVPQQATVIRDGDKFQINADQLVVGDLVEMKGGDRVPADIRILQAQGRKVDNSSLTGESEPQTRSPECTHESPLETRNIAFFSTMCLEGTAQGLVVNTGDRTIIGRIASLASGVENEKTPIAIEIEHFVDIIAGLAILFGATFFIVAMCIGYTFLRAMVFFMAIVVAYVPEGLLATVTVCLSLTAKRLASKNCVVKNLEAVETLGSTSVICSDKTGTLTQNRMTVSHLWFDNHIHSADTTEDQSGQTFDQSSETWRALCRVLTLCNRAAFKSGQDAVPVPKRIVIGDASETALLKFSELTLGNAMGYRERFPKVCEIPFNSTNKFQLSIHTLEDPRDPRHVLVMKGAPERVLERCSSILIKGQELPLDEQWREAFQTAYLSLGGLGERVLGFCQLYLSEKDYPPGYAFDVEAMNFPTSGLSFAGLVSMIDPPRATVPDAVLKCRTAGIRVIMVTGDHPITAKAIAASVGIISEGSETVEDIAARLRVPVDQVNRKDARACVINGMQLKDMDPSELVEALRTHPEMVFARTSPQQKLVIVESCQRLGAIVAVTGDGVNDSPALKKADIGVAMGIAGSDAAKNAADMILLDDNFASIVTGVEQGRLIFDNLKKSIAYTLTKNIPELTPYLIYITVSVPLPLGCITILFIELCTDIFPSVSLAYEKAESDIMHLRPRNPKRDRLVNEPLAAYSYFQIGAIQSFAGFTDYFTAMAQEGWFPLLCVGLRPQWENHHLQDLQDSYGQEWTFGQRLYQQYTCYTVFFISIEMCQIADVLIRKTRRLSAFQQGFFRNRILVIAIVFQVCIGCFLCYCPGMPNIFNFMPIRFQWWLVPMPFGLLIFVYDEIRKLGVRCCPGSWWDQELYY
T1 sequence (P18434 whole entry partner): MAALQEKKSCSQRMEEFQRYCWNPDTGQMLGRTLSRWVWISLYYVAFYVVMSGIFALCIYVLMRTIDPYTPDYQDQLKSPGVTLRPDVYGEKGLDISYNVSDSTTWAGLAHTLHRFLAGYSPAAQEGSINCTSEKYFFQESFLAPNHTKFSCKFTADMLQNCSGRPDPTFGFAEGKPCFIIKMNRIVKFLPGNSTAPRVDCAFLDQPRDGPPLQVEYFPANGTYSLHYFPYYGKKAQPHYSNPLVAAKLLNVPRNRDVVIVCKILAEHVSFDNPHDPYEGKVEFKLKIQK

Row | Compound | IC50 [nM]
1 | CNCc1cn(S(=O)(=O)c2cccnc2)c2cc(Nc3cccc(C)c3F)ccc12 [Example 20, N-(2-fluoro-3-methylphenyl)-3-((methylamino)methyl)-1-(pyridin-3-ylsulfonyl)-1H-indol-6-amine hydrochloride] | 380
2 | CNCc1cn(S(=O)(=O)c2cccnc2)c2cc(N3CCCc4cc(C)ccc43)ccc12 [Example 260, N-methyl-1-(6-(6-methyl-3,4-dihydroquinolin-1(2H)-yl)-1-(pyridin-3-ylsulfonyl)-1H-indol-3-yl)methanamine hydrochloride] | 380
3 | CNCc1cn(S(=O)(=O)c2ccc(OC(F)(F)F)cc2)c2cc(Nc3ccc(C)cc3F)ccc12 [Example 206, N-(2-fluoro-4-methylphenyl)-3-((methylamino)methyl)-1-((4-(trifluoromethoxy)phenyl)sulfonyl)-1H-indol-6-amine hydrochloride] | 2550
4 | CNCc1cn(S(=O)(=O)c2cccc(OC(F)F)c2)c2cc(Nc3ccc(C)cc3F)ccc12 [Example 174, 1-((3-(difluoromethoxy)phenyl)sulfonyl)-N-(2-fluoro-4-methylphenyl)-3-((methylamino)methyl)-1H-indol-6-amine hydrochloride] | 20
5 | CNCc1cn(S(=O)(=O)c2cc(C)ccc2C)c2cc(Nc3ccc(C)cc3F)ccc12 [Example 236, 1-((2,5-dimethylphenyl)sulfonyl)-N-(2-fluoro-4-methylphenyl)-3-((methylamino)methyl)-1H-indol-6-amine hydrochloride] | 2040
6 | CNCc1cn(S(=O)(=O)c2cccc(OC(F)(F)F)c2)c2cc(Nc3ccc(C)nc3F)ccc12 [Example 204, N-(2-fluoro-6-methylpyridin-3-yl)-3-((methylamino)methyl)-1-((3-(trifluoromethoxy)phenyl)sulfonyl)-1H-indol-6-amine hydrochloride] | 500
7 | COc1ccc(Nc2ccc3c(C(=O)N(C)C)cn(S(=O)(=O)c4cccc(C(F)(F)F)c4)c3c2)c(Cl)n1 [Example 321, 6-((2-chloro-6-methoxypyridin-3-yl)amino)-N,N-dimethyl-1-((3-(trifluoromethyl)phenyl)sulfonyl)-1H-indol-3-carboxamide] | 3350
8 | CNCc1cn(S(=O)(=O)c2cccnc2)c2cc(Nc3ccc(C#N)cc3F)ccc12 [Example 38, 3-fluoro-4-((3-((methylamino)methyl)-1-(pyridin-3-ylsulfonyl)-1H-indol-6-yl)amino)benzonitrile hydrochloride] | 2190
9 | CNCc1cn(S(=O)(=O)c2cccc(Cl)c2)c2cc(Nc3ccc(C)nc3F)ccc12 [Example 158, 1-((3-chlorophenyl)sulfonyl)-N-(2-fluoro-6-methylpyridin-3-yl)-3-((methylamino)methyl)-1H-indol-6-amine hydrochloride] | 410
10 | CNCc1cn(S(=O)(=O)c2ccc(F)c(F)c2)c2cc(Nc3ccc(C)cc3F)ccc12 [Example 237, 1-((3,4-difluorophenyl)sulfonyl)-N-(2-fluoro-4-methylphenyl)-3-((methylamino)methyl)-1H-indol-6-amine hydrochloride] | 990
11 | CNCc1cn(S(=O)(=O)c2cccnc2)c2cc(Nc3cccc(Cl)c3)ccc12 [Example 7, N-(3-chlorophenyl)-3-((methylamino)methyl)-1-(pyridin-3-ylsulfonyl)-1H-indol-6-amine hydrochloride] | 590
12 | CNCc1cn(S(=O)(=O)c2cccc(OC)c2)c2cc(Nc3ccc(OC(F)(F)F)cc3Cl)ccc12 [Example 169, N-(2-chloro-4-(trifluoromethoxy)phenyl)-1-((3-methoxyphenyl)sulfonyl)-3-((methylamino)methyl)-1H-indol-6-amine hydrochloride] | 80
13 | CNCc1cn(S(=O)(=O)c2cccnc2)c2cc(-c3ccccc3)ccc12 [Example 243, N-methyl-1-(6-phenyl-1-(pyridin-3-ylsulfonyl)-1H-indol-3-yl)methanamine] | 7140
14 | CNCc1cn(S(=O)(=O)c2cccc(OC(F)(F)F)c2)c2cc(Nc3ccc(C)nc3Cl)ccc12 [Example 205, N-(2-chloro-6-methylpyridin-3-yl)-3-((methylamino)methyl)-1-((3-(trifluoromethoxy)phenyl)sulfonyl)-1H-indol-6-amine hydrochloride] | 1750
15 | CNCc1cn(S(=O)(=O)c2cccnc2)c2cc(Nc3ccc(Cl)cc3)ccc12 [Example 11, N-(4-chlorophenyl)-3-((methylamino)methyl)-1-(pyridin-3-ylsulfonyl)-1H-indol-6-amine hydrochloride] | 1020
16 | COC(=O)c1cn(S(=O)(=O)c2ccc(Cl)nc2)c2cc(-c3ccc(F)nc3)ccc12 [Example 337, methyl 1-((6-chloropyridin-3-yl)sulfonyl)-6-(6-fluoropyridin-3-yl)-1H-indol-3-carboxylate] | 3150
17 | CNCc1cn(S(=O)(=O)c2cccnc2)c2cc(Nc3c(C)cc(Br)cc3C)ccc12 [Example 90, N-(4-bromo-2,6-dimethylphenyl)-3-((methylamino)methyl)-1-(pyridin-3-ylsulfonyl)-1H-indol-6-amine hydrochloride] | 710

More lines, in order of falling IC50, values ahead:

Row | IC50 [nM] | Compound
18 | 3000 | CNCc1cn(S(=O)(=O)c2cccnc2)c2cc(Nc3ccc4ncccc4c3)ccc12 [Example 135, N-3-((methylamino)methyl)-1-(pyridin-3-ylsulfonyl)-1H-indol-6-yl)quinolin-6-amine hydrochloride]
19 | 2440 | CNCc1cn(S(=O)(=O)c2cccnc2)c2cc(-c3cccc(Cl)c3)ccc12 [Example 244, 1-(6-(3-chlorophenyl)-1-(pyridin-3-ylsulfonyl)-1H-indol-3-yl)-N-methylmethanamine]
20 | 2060 | CNCc1cn(S(=O)(=O)c2ccccc2Cl)c2cc(Nc3ccc(C)cc3F)ccc12 [Example 225, 1-((2-chlorophenyl)sulfonyl)-N-(2-fluoro-4-methylphenyl)-3-((methylamino)methyl)-1H-indol-6-amine hydrochloride]
21 | 1970 | CNCc1cn(S(=O)(=O)c2cccnc2)c2cc(Cc3ccc(OC(F)(F)F)cc3C)ccc12 [Example 278, N-methyl-1-(6-(2-methyl-4-(trifluoromethoxy)benzyl)-1-(pyridin-3-ylsulfonyl)-1H-indol-3-yl)methanamine hydrochloride]
22 | 1270 | CNCc1cn(S(=O)(=O)c2cccc(C(F)(F)F)c2)c2cc(Nc3ccc(C(F)(F)F)nc3Cl)ccc12 [Example 195, N-(2-chloro-6-(trifluoromethyl)pyridin-3-yl)-3-((methylamino)methyl)-1-((3-(trifluoromethyl)phenyl)sulfonyl)-1H-indol-6-amine hydrochloride]
23 | 1150 | CNCc1cn(S(=O)(=O)c2cccnc2)c2cc(Nc3ccccc3)ccc12 [Example 2, 3-((methylamino)methyl)-N-phenyl-1-(pyridin-3-ylsulfonyl)-1H-indol-6-amine hydrochloride]
24 | 1060 | CNCc1cn(S(=O)(=O)c2ccc(OC(F)(F)F)cc2)c2cc(Nc3ccc(OC(F)(F)F)cc3C)ccc12 [Example 209, N-(2-methyl-4-(trifluoromethoxy)phenyl)-3-((methylamino)methyl)1-((4-(trifluoromethoxy)phenyl)sulfonyl)-1H-indol-6-amine hydrochloride]
25 | 1030 | CNCc1cn(S(=O)(=O)c2cccnc2)c2cc(Nc3c(F)cc(F)cc3Cl)ccc12 [Example 83, N-(2-chloro-4,6-difluorophenyl)-3-((methylamino)methyl)-1-(pyridin-3-ylsulfonyl)-1H-indol-6-amine hydrochloride]
26 | 470 | CNCc1cn(S(=O)(=O)c2cccc(OC)c2)c2cc(Cc3ccc(C)cc3Cl)ccc12 [Example 303, 1-(6-(2-chloro-4-methylbenzyl)-1-((3-methoxyphenyl)sulfonyl)-1H-indol-3-yl)-N-methylmethanamine]
27 | 360 | CNCc1cn(S(=O)(=O)c2cccc(C(F)(F)F)c2)c2cc(Nc3ccc(C)cc3Cl)ccc12 [Example 184, N-(2-chloro-4-methylphenyl)-3-((methylamino)methyl)-1-((3-(trifluoromethyl)phenyl)sulfonyl)-1H-indol-6-amine hydrochloride]
28 | 320 | CNCc1cn(S(=O)(=O)c2cccnc2)c2cc(Nc3ccc(OC)cc3F)ccc12 [Example 49, N-(2-fluoro-4-methoxyphenyl)-3-((methylamino)methyl)-1-(pyridin-3-ylsulfonyl)-1H-indol-6-amine hydrochloride]
29 | 200 | CNCc1cn(S(=O)(=O)c2cccnc2)c2cc(Nc3ccc(Cl)cc3C)cnc12 [Example 348, N-(4-chloro-2-methylphenyl)-3-((methylamino)methyl)-1-(pyridin-3-ylsulfonyl)-1H-pyrrolo[3,2-b]pyridin-6-amine hydrochloride]
